Each molecule was assayed on Myotonic Dystrophy 1 affected patient fibroblasts (Coriell GM04602; 1600 CTG repeats) (assay: DM1 foci reduction assay (CAG10-Cy3 FISH, average foci per nucleus)). Conditions: Homo sapiens, Fibroblast, 48 h, read-out: Foci Reduction in Fibroblast EC50, 48 h (nM).
Assay type: cell-based
Summary of the method: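 Read-out is mean nuclear foci per well from CAG10-Cy3 FISH (5 nM probe, overnight 37 °C) with DAPI nuclei, 4 fields per well at 20×. Compounds ran 48 h in 8-point, 3-fold series topping at 3 μM on 1600-CTG GM04602 fibroblasts, alongside GM07492 wild-type cells.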
Molecule `CCN(CC)CCCC[C@H](NC(=O)COCCNC(=O)c1cnn(-c2ccc(C(C)(C)C)cc2)c1)C(=O)N[C@@H](CO)C(=O)NCCOCCOCCOCCOCCOCCNC(=O)CCNC(=O)c1nc(NC(=O)c2cc(NC(=O)CCNC(=O)c3nc(NC(=O)CCCNC(=O)c4cc(NC(=O)c5nc(NC(=O)CCNC(=O)c6cc(NC(=O)c7nccn7C)cn6C)cn5C)cn4C)cn3C)cn2C)cn1C` [Compound 150] has an EC50 greater than 500 nM. For `CCN(CC)CCCC[C@H](NC(=O)[C@H](CC(C)C)NC(=O)[C@H](C)NC(=O)[C@H](Cc1ccccc1)NC(=O)c1ccc(C(C)(C)C)cc1)C(=O)N[C@@H](CO)C(=O)N1CCC(C#CC#CC2CCN(CCOCCNC(=O)CCNC(=O)c3nc(NC(=O)c4cc(NC(=O)CCNC(=O)c5nc(NC(=O)CCCNC(=O)c6cc(NC(=O)c7nc(NC(=O)CCNC(=O)c8cc(NC(=O)c9nccn9C)cn8C)cn7C)cn6C)cn5C)cn4C)cn3C)CC2)CC1` [Compound 181], the EC50 was less than 100 nM. For `CCN(CC)CCCC[C@H](NC(=O)[C@H](CC(C)C)NC(=O)[C@H](C)NC(=O)[C@H](Cc1ccccc1)NC(=O)c1ccc(C(C)(C)C)cc1)C(=O)N[C@@H](CO)C(=O)NCCOCCOCCOCCOCCOCCNC(=O)CCNC(=O)c1cc(NC(=O)c2nc(NC(=O)CCNC(=O)c3nc(NC(=O)CCCNC(=O)c4cc(NC(=O)c5nc(NC(=O)c6cc(NC(=O)CCNC(=O)c7nccn7C)cn6C)cn5C)cn4C)cn3C)cn2C)cn1C` [Compound 285], the EC50 was greater than 500 nM.
